Experimental data from PubChem BioAssay (NCI).
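48-hour exposure; five concentrations; linearly interpolated endpoints. TGI is the concentration that stops growth completely.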

Assays:
Assay in all cases: NCI tumour cell line growth inhibition, 48 h
SNB-78 CNS = test system: SNB-78 CNS
P388/ADR leukemia = test system: P388/ADR leukemia
SK-MEL-28 melanoma = test system: SK-MEL-28 melanoma
LOX IMVI melanoma = test system: LOX IMVI melanoma
NCI-H226 lung = test system: NCI-H226 lung
SN12C renal = test system: SN12C renal
KM12 colon = test system: KM12 colon
HOP-62 NSCLC = test system: HOP-62 NSCLC
CAKI-1 renal = test system: CAKI-1 renal
MCF7 breast = test system: MCF7 breast
A549 NSCLC = test system: A549 NSCLC
UO-31 renal = test system: UO-31 renal
HL-60(TB) leukemia = test system: HL-60(TB) leukemia
DLD-1 colon = test system: DLD-1 colon
MALME-3M melanoma = test system: MALME-3M melanoma
HT29 colon = test system: HT29 colon
HCT-116 colon = test system: HCT-116 colon
NCI-H23 lung = test system: NCI-H23 lung
HCC-2998 colon = test system: HCC-2998 colon
SK-OV-3 ovarian = test system: SK-OV-3 ovarian
NCI-H460 lung = test system: NCI-H460 lung
HCT-15 colon = test system: HCT-15 colon
SNB-19 CNS = test system: SNB-19 CNS
IGROV1 ovarian = test system: IGROV1 ovarian
SF-539 CNS = test system: SF-539 CNS
EKVX NSCLC = test system: EKVX NSCLC
RXF 393 renal = test system: RXF 393 renal
SN12K1 renal = test system: SN12K1 renal
COLO 205 colon = test system: COLO 205 colon
OVCAR-8 ovarian = test system: OVCAR-8 ovarian
DMS 273 small cell lung = test system: DMS 273 small cell lung
UACC-62 melanoma = test system: UACC-62 melanoma
SK-MEL-5 melanoma = test system: SK-MEL-5 melanoma
SF-268 CNS = test system: SF-268 CNS
SK-MEL-2 melanoma = test system: SK-MEL-2 melanoma
SW-620 colon = test system: SW-620 colon
U251 CNS = test system: U251 CNS
MOLT-4 leukemia = test system: MOLT-4 leukemia
A498 renal = test system: A498 renal
RPMI-8226 leukemia = test system: RPMI-8226 leukemia
K-562 leukemia = test system: K-562 leukemia
P388 leukemia = test system: P388 leukemia
OVCAR-5 ovarian = test system: OVCAR-5 ovarian
UACC-257 melanoma = test system: UACC-257 melanoma
CCRF-CEM leukemia = test system: CCRF-CEM leukemia
NCI/ADR-RES ovarian = test system: NCI/ADR-RES ovarian
SNB-75 CNS = test system: SNB-75 CNS
NCI-H522 lung = test system: NCI-H522 lung
HOP-92 NSCLC = test system: HOP-92 NSCLC
HOP-18 NSCLC = test system: HOP-18 NSCLC
OVCAR-3 ovarian = test system: OVCAR-3 ovarian
M19-MEL melanoma = test system: M19-MEL melanoma
KM20L2 colon = test system: KM20L2 colon
OVCAR-4 ovarian = test system: OVCAR-4 ovarian
SF-295 CNS = test system: SF-295 CNS
M14 melanoma = test system: M14 melanoma
ACHN renal = test system: ACHN renal
TK-10 renal = test system: TK-10 renal
RXF-631 renal = test system: RXF-631 renal
786-0 renal = test system: 786-0 renal
XF 498 CNS = test system: XF 498 CNS
SR leukemia = test system: SR leukemia
DMS 114 small cell lung = test system: DMS 114 small cell lung
LXFL 529 NSCLC = test system: LXFL 529 NSCLC

COCC1N=C(c2cc(OC)c(OC)c(OC)c2-c2cc3c(cc2[C@@H](C)O)OCO3)O[C@H]1c1ccccc1 (some centres not stated)
TGI (SNB-78 CNS): > 87.4 µM
TGI (P388/ADR leukemia): > 100 µM
TGI (SK-MEL-28 melanoma): > 100 µM
TGI (LOX IMVI melanoma): > 100 µM
TGI (NCI-H226 lung): > 100 µM
TGI (SN12C renal): > 100 µM
TGI (KM12 colon): > 100 µM
TGI (HOP-62 NSCLC): > 100 µM
TGI (CAKI-1 renal): > 100 µM
TGI (MCF7 breast): > 100 µM
TGI (A549 NSCLC): > 100 µM
TGI (UO-31 renal): > 100 µM
TGI (HL-60(TB) leukemia): > 100 µM
TGI (DLD-1 colon): > 100 µM
TGI (MALME-3M melanoma): > 100 µM
TGI (HT29 colon): > 100 µM
TGI (HCT-116 colon): > 100 µM
TGI (NCI-H23 lung): > 100 µM
TGI (HCC-2998 colon): > 100 µM
TGI (SK-OV-3 ovarian): > 100 µM
TGI (NCI-H460 lung): > 100 µM
TGI (HCT-15 colon): > 100 µM
TGI (SNB-19 CNS): > 100 µM
TGI (IGROV1 ovarian): > 100 µM
TGI (SF-539 CNS): > 100 µM
TGI (EKVX NSCLC): > 95.5 µM
TGI (RXF 393 renal): > 91.6 µM
TGI (SN12K1 renal): > 100 µM
TGI (COLO 205 colon): > 100 µM
TGI (OVCAR-8 ovarian): > 100 µM
TGI (DMS 273 small cell lung): > 100 µM
TGI (UACC-62 melanoma): > 100 µM
TGI (SK-MEL-5 melanoma): > 100 µM
TGI (SF-268 CNS): > 100 µM
TGI (SK-MEL-2 melanoma): > 87.7 µM
TGI (SW-620 colon): > 100 µM
TGI (U251 CNS): > 100 µM
TGI (MOLT-4 leukemia): > 100 µM
TGI (A498 renal): > 100 µM
TGI (RPMI-8226 leukemia): > 100 µM
TGI (K-562 leukemia): > 100 µM
TGI (P388 leukemia): > 100 µM
TGI (OVCAR-5 ovarian): > 100 µM
TGI (UACC-257 melanoma): > 100 µM
TGI (CCRF-CEM leukemia): > 100 µM
TGI (NCI/ADR-RES ovarian): > 95.7 µM
TGI (SNB-75 CNS): > 72.3 µM
TGI (NCI-H522 lung): > 100 µM
TGI (HOP-92 NSCLC): > 84.5 µM
TGI (HOP-18 NSCLC): > 100 µM
TGI (OVCAR-3 ovarian): > 100 µM
TGI (M19-MEL melanoma): > 100 µM
TGI (KM20L2 colon): > 100 µM
TGI (OVCAR-4 ovarian): > 100 µM
TGI (SF-295 CNS): > 100 µM

O=Cc1cn(S(=O)(=O)c2ccccc2)c2ccccc12
TGI (SNB-78 CNS): > 100 µM
TGI (SK-MEL-28 melanoma): > 100 µM
TGI (LOX IMVI melanoma): 43.8 µM
TGI (NCI-H226 lung): > 100 µM
TGI (SN12C renal): > 100 µM
TGI (KM12 colon): > 100 µM
TGI (M14 melanoma): > 100 µM
TGI (HOP-62 NSCLC): > 100 µM
TGI (A549 NSCLC): > 100 µM
TGI (UO-31 renal): 68 µM
TGI (ACHN renal): > 100 µM
TGI (TK-10 renal): > 100 µM
TGI (HL-60(TB) leukemia): 49.2 µM
TGI (DLD-1 colon): > 100 µM
TGI (MALME-3M melanoma): > 100 µM
TGI (HT29 colon): > 100 µM
TGI (RXF-631 renal): > 100 µM
TGI (786-0 renal): > 100 µM
TGI (HCT-116 colon): 40.1 µM
TGI (NCI-H23 lung): 85 µM
TGI (HCC-2998 colon): > 100 µM
TGI (SK-OV-3 ovarian): > 100 µM
TGI (NCI-H460 lung): > 100 µM
TGI (HCT-15 colon): > 100 µM
TGI (SNB-19 CNS): > 100 µM
TGI (IGROV1 ovarian): > 100 µM
TGI (SF-539 CNS): > 100 µM
TGI (EKVX NSCLC): > 100 µM
TGI (RXF 393 renal): > 100 µM
TGI (OVCAR-8 ovarian): > 100 µM
TGI (UACC-62 melanoma): 86 µM
TGI (SF-268 CNS): > 100 µM
TGI (SW-620 colon): > 100 µM
TGI (XF 498 CNS): > 100 µM
TGI (U251 CNS): > 100 µM
TGI (MOLT-4 leukemia): 53.1 µM
TGI (A498 renal): > 100 µM
TGI (RPMI-8226 leukemia): 59.3 µM
TGI (K-562 leukemia): 50 µM
TGI (SR leukemia): 67.1 µM
TGI (OVCAR-5 ovarian): > 100 µM
TGI (UACC-257 melanoma): > 100 µM
TGI (CCRF-CEM leukemia): > 100 µM
TGI (SNB-75 CNS): > 100 µM
TGI (HOP-18 NSCLC): > 100 µM
TGI (OVCAR-3 ovarian): > 100 µM
TGI (M19-MEL melanoma): > 100 µM
TGI (KM20L2 colon): > 100 µM
TGI (OVCAR-4 ovarian): > 100 µM
TGI (SF-295 CNS): > 100 µM
TGI (DMS 114 small cell lung): 62.9 µM
TGI (LXFL 529 NSCLC): > 100 µM
